In US6740642B2, “Macrolides with antibacterial activity” (BAsilea Parmaceutica AG, priority 2000, dated 2004):
≈ marks a conversion by molar mass, not a printed value.

Legend:
S. aureus 1086 = assay: MIC, standard microdilution; assay type: cell-based, Staphylococcus aureus; details: Staphylococcus aureus, read-out: minimum inhibitory concentration (MIC)
Text: (§1) The antibacterial activities of the compounds have been determined by standard microdilution technique (National Committee for Clinical Laboratory Standards. 1997. Methods for dilution antimicrobial susceptibility tests for bacteria that grow aerobically, 4th edition. Approved standard M7-A4. National Committee for Clinical Laboratory Standards, Wayne, Pa.).

S. aureus 745 = assay: MIC, standard microdilution; assay type: cell-based, Staphylococcus aureus; details: Staphylococcus aureus, read-out: minimum inhibitory concentration (MIC)
Text: as §1

S. aureus ATCC29213 = assay: MIC, standard microdilution; assay type: cell-based, Staphylococcus aureus; details: Staphylococcus aureus, read-out: minimum inhibitory concentration (MIC)
Text: as §1

E. coli ATCC25922 = assay: MIC, standard microdilution; assay type: cell-based; details: Escherichia coli, read-out: minimum inhibitory concentration (MIC)
Text: as §1

[1] = test system: P. aeruginosa ATCC27853 (+Ery. 32 μg/ml); assay: MIC, standard microdilution; assay type: cell-based
Text: as §1

St. pneumoniae 1/1 = assay: MIC, standard microdilution; assay type: cell-based, Streptococcus pneumoniae; details: Streptococcus pneumoniae, read-out: minimum inhibitory concentration (MIC)
Text: as §1

St. pneumoniae 1/4 = assay: MIC, standard microdilution; assay type: cell-based, Streptococcus pneumoniae; details: Streptococcus pneumoniae, read-out: minimum inhibitory concentration (MIC)
Text: as §1

St. pneumoniae 12288 = assay: MIC, standard microdilution; assay type: cell-based, Streptococcus pneumoniae; details: Streptococcus pneumoniae, read-out: minimum inhibitory concentration (MIC)
Text: as §1

St. pneumoniae SL199T = assay: MIC, standard microdilution; assay type: cell-based, Streptococcus pneumoniae; details: Streptococcus pneumoniae, read-out: minimum inhibitory concentration (MIC)
Text: as §1

H. influenzae 11 = assay: MIC, agar dilution, HTM medium; assay type: cell-based, Haemophilus influenzae; details: Haemophilus influenzae, read-out: MIC
Text: as §1, with “biological” for “antibacterial”, “of compounds of” for “of”, “present invention against Haemophilus influenzae” for “compounds”, “agar dilution method using HTM medium” for “microdilution technique”

H. influenzae 12214 = assay: MIC, agar dilution, HTM medium; assay type: cell-based, Haemophilus influenzae; details: Haemophilus influenzae, read-out: MIC
Text: as §1, with “biological” for “antibacterial”, “of compounds of” for “of”, “present invention against Haemophilus influenzae” for “compounds”, “agar dilution method using HTM medium” for “microdilution technique”

H. influenzae 1 = assay: MIC, agar dilution, HTM medium; assay type: cell-based, Haemophilus influenzae; details: Haemophilus influenzae, read-out: MIC
Text: as §1, with “biological” for “antibacterial”, “of compounds of” for “of”, “present invention against Haemophilus influenzae” for “compounds”, “agar dilution method using HTM medium” for “microdilution technique”

H. influenzae 23145 = assay: MIC, agar dilution, HTM medium; assay type: cell-based, Haemophilus influenzae; details: Haemophilus influenzae, read-out: MIC
Text: as §1, with “biological” for “antibacterial”, “of compounds of” for “of”, “present invention against Haemophilus influenzae” for “compounds”, “agar dilution method using HTM medium” for “microdilution technique”

H. influenzae 23369 = assay: MIC, agar dilution, HTM medium; assay type: cell-based, Haemophilus influenzae; details: Haemophilus influenzae, read-out: MIC
Text: as §1, with “biological” for “antibacterial”, “of compounds of” for “of”, “present invention against Haemophilus influenzae” for “compounds”, “agar dilution method using HTM medium” for “microdilution technique”

H. influenzae 2947 = assay: MIC, agar dilution, HTM medium; assay type: cell-based, Haemophilus influenzae; details: Haemophilus influenzae, read-out: MIC
Text: as §1, with “biological” for “antibacterial”, “of compounds of” for “of”, “present invention against Haemophilus influenzae” for “compounds”, “agar dilution method using HTM medium” for “microdilution technique”

H. influenzae 3201 = assay: MIC, agar dilution, HTM medium; assay type: cell-based, Haemophilus influenzae; details: Haemophilus influenzae, read-out: MIC
Text: as §1, with “biological” for “antibacterial”, “of compounds of” for “of”, “present invention against Haemophilus influenzae” for “compounds”, “agar dilution method using HTM medium” for “microdilution technique”

H. influenzae 3457 = assay: MIC, agar dilution, HTM medium; assay type: cell-based, Haemophilus influenzae; details: Haemophilus influenzae, read-out: MIC
Text: as §1, with “biological” for “antibacterial”, “of compounds of” for “of”, “present invention against Haemophilus influenzae” for “compounds”, “agar dilution method using HTM medium” for “microdilution technique”

H. influenzae 3640 = assay: MIC, agar dilution, HTM medium; assay type: cell-based, Haemophilus influenzae; details: Haemophilus influenzae, read-out: MIC
Text: as §1, with “biological” for “antibacterial”, “of compounds of” for “of”, “present invention against Haemophilus influenzae” for “compounds”, “agar dilution method using HTM medium” for “microdilution technique”

H. influenzae 4139 = assay: MIC, agar dilution, HTM medium; assay type: cell-based, Haemophilus influenzae; details: Haemophilus influenzae, read-out: MIC
Text: as §1, with “biological” for “antibacterial”, “of compounds of” for “of”, “present invention against Haemophilus influenzae” for “compounds”, “agar dilution method using HTM medium” for “microdilution technique”

H. influenzae ATCC 49247 = assay: MIC, agar dilution, HTM medium; assay type: cell-based, Haemophilus influenzae; details: Haemophilus influenzae, ATCC49247, read-out: MIC
Text: as §1, with “biological” for “antibacterial”, “of compounds of” for “of”, “present invention against Haemophilus influenzae” for “compounds”, “agar dilution method using HTM medium” for “microdilution technique”

H. influenzae ATCC 9334 = assay: MIC, agar dilution, HTM medium; assay type: cell-based, Haemophilus influenzae; details: Haemophilus influenzae, ATCC9334, read-out: MIC
Text: as §1, with “biological” for “antibacterial”, “of compounds of” for “of”, “present invention against Haemophilus influenzae” for “compounds”, “agar dilution method using HTM medium” for “microdilution technique”

H. influenzae B 1501 = assay: MIC, agar dilution, HTM medium; assay type: cell-based, Haemophilus influenzae; details: Haemophilus influenzae, B1501, read-out: MIC
Text: as §1, with “biological” for “antibacterial”, “of compounds of” for “of”, “present invention against Haemophilus influenzae” for “compounds”, “agar dilution method using HTM medium” for “microdilution technique”

H. influenzae Christy = assay: MIC, agar dilution, HTM medium; assay type: cell-based, Haemophilus influenzae; details: Haemophilus influenzae, read-out: MIC
Text: as §1, with “biological” for “antibacterial”, “of compounds of” for “of”, “present invention against Haemophilus influenzae” for “compounds”, “agar dilution method using HTM medium” for “microdilution technique”

H. influenzae H13 LAH = assay: MIC, agar dilution, HTM medium; assay type: cell-based, Haemophilus influenzae; details: Haemophilus influenzae, H13LAH, read-out: MIC
Text: as §1, with “biological” for “antibacterial”, “of compounds of” for “of”, “present invention against Haemophilus influenzae” for “compounds”, “agar dilution method using HTM medium” for “microdilution technique”

H. influenzae H20 HDL = assay: MIC, agar dilution, HTM medium; assay type: cell-based, Haemophilus influenzae; details: Haemophilus influenzae, H20HDL, read-out: MIC
Text: as §1, with “biological” for “antibacterial”, “of compounds of” for “of”, “present invention against Haemophilus influenzae” for “compounds”, “agar dilution method using HTM medium” for “microdilution technique”

H. influenzae H28 HEL = assay: MIC, agar dilution, HTM medium; assay type: cell-based, Haemophilus influenzae; details: Haemophilus influenzae, H28HEL, read-out: MIC
Text: as §1, with “biological” for “antibacterial”, “of compounds of” for “of”, “present invention against Haemophilus influenzae” for “compounds”, “agar dilution method using HTM medium” for “microdilution technique”

H. influenzae H36 ODL = assay: MIC, agar dilution, HTM medium; assay type: cell-based, Haemophilus influenzae; details: Haemophilus influenzae, H36ODL, read-out: MIC
Text: as §1, with “biological” for “antibacterial”, “of compounds of” for “of”, “present invention against Haemophilus influenzae” for “compounds”, “agar dilution method using HTM medium” for “microdilution technique”

H. influenzae QK 12/87 = assay: MIC, agar dilution, HTM medium; assay type: cell-based, Haemophilus influenzae; details: Haemophilus influenzae, QK12/87, read-out: MIC
Text: as §1, with “biological” for “antibacterial”, “of compounds of” for “of”, “present invention against Haemophilus influenzae” for “compounds”, “agar dilution method using HTM medium” for “microdilution technique”

H. influenzae QK 50 = assay: MIC, agar dilution, HTM medium; assay type: cell-based, Haemophilus influenzae; details: Haemophilus influenzae, QK50, read-out: MIC
Text: as §1, with “biological” for “antibacterial”, “of compounds of” for “of”, “present invention against Haemophilus influenzae” for “compounds”, “agar dilution method using HTM medium” for “microdilution technique”

H. influenzae Rd KW20 = assay: MIC, agar dilution, HTM medium; assay type: cell-based, Haemophilus influenzae; details: Haemophilus influenzae, RDKW20, read-out: MIC
Text: as §1, with “biological” for “antibacterial”, “of compounds of” for “of”, “present invention against Haemophilus influenzae” for “compounds”, “agar dilution method using HTM medium” for “microdilution technique”

MIC (S. aureus 1086) | MIC (S. aureus 745) | MIC (S. aureus ATCC29213) | MIC (E. coli ATCC25922) | minimum inhibitory concentration (MIC) [1] | MIC (St. pneumoniae 1/1) | MIC (St. pneumoniae 1/4) | MIC (St. pneumoniae 12288) | MIC (St. pneumoniae SL199T) | MIC (H. influenzae 11) | MIC (H. influenzae 12214) | MIC (H. influenzae 1) | MIC (H. influenzae 23145) | MIC (H. influenzae 23369) | MIC (H. influenzae 2947) | MIC (H. influenzae 3201) | MIC (H. influenzae 3457) | MIC (H. influenzae 3640) | MIC (H. influenzae 4139) | MIC (H. influenzae ATCC 49247) | Structure (SMILES) | further results
≤ 0.12 µg/mL | > 16 µg/mL | ≤ 0.12 µg/mL | > 16 µg/mL | >16 µg/mL | ≤ 0.12 µg/mL | ≤ 0.12 µg/mL | 8 µg/mL (≈ 10.1 µM) | 1 µg/mL (≈ 1.26 µM) | 4 µg/mL (≈ 5.03 µM) | 4 µg/mL (≈ 5.03 µM) | 4 µg/mL (≈ 5.03 µM) | 4 µg/mL (≈ 5.03 µM) | 8 µg/mL (≈ 10.1 µM) | 4 µg/mL (≈ 5.03 µM) | 4 µg/mL (≈ 5.03 µM) | 0.5 µg/mL (≈ 0.628 µM) | 2 µg/mL (≈ 2.51 µM) | 2 µg/mL (≈ 2.51 µM) | 4 µg/mL (≈ 5.03 µM) | CC[C@H]1OC(=O)[C@H](C)C(=O)[C@H](C)[C@@H](O[C@@H]2O[C@H](C)C[C@H](N(C)C)[C@H]2O)[C@](C)(OC)C[C@@H](C)C(=O)[C@H](C)[C@H]2[C@H](SCCn3cc(C)c(=O)[nH]c3=O)C(=O)O[C@@]21C [Compound I-7, (3S,3aR,4R,6R,8R,9R,10R,12R,15R,15aS)-15-Ethyloctahydro-8-methoxy-4,6,8,10,12,15a-hexamethyl-3-[[2-[5-methyl-2,4-1H,3H-pyrimidinedione-1-yl]ethyl]thio]-9-[[3,4,6-trideoxy-3-(dimethylamino)-β-D-xylo-hexopyranosyl]oxy]-2H-furo[2,3-c]oxacyclotetradecin-2,5,11,13(3H,6H,12H)-tetrone] | MIC (H. influenzae ATCC 9334): 4 µg/mL (≈ 5.03 µM); MIC (H. influenzae B 1501): 4 µg/mL (≈ 5.03 µM); MIC (H. influenzae Christy): 4 µg/mL (≈ 5.03 µM); MIC (H. influenzae H13 LAH): 4 µg/mL (≈ 5.03 µM); MIC (H. influenzae H20 HDL): 2 µg/mL (≈ 2.51 µM); MIC (H. influenzae H28 HEL): 2 µg/mL (≈ 2.51 µM); MIC (H. influenzae H36 ODL): 8 µg/mL (≈ 10.1 µM); MIC (H. influenzae QK 12/87): 2 µg/mL (≈ 2.51 µM); MIC (H. influenzae QK 50): 4 µg/mL (≈ 5.03 µM); MIC (H. influenzae Rd KW20): 4 µg/mL (≈ 5.03 µM)
≤ 0.12 µg/mL | > 16 µg/mL | ≤ 0.12 µg/mL | 8 µg/mL (≈ 9.94 µM) | >16 µg/mL | ≤ 0.12 µg/mL | 0.25 µg/mL (≈ 0.311 µM) | 0.25 µg/mL (≈ 0.311 µM) | 0.25 µg/mL (≈ 0.311 µM) | 4 µg/mL (≈ 4.97 µM) | 2 µg/mL (≈ 2.48 µM) | 1 µg/mL (≈ 1.24 µM) | 4 µg/mL (≈ 4.97 µM) | 4 µg/mL (≈ 4.97 µM) | 2 µg/mL (≈ 2.48 µM) | 4 µg/mL (≈ 4.97 µM) | 0.25 µg/mL (≈ 0.311 µM) | 2 µg/mL (≈ 2.48 µM) | 2 µg/mL (≈ 2.48 µM) | 1 µg/mL (≈ 1.24 µM) | CC[C@H]1OC(=O)[C@H](C)C(=O)[C@H](C)[C@@H](O[C@@H]2O[C@H](C)C[C@H](N(C)C)[C@H]2O)[C@](C)(OC)C[C@@H](C)C(=O)[C@H](C)[C@H]2[C@H](SCCn3cnc4c(N)ncnc43)C(=O)O[C@@]21C [Compound I-14, (3S,3aR,4R,6R,8R,9R,10R,12R,15R,15aS)-3-[[2-[6-Amino-9H-purine-9-yl]ethyl]thio]-15-ethyloctahydro-8-methoxy-4,6,8,10,12,15a-hexamethyl-9-[[3,4,6-trideoxy-3-(dimethylamino)-β-D-xylo-hexopyranosyl]oxy]-2H-furo[2,3-c]oxacyclotetradecin-2,5,11,13(3H,6H,12H)-tetrone] | MIC (H. influenzae ATCC 9334): 4 µg/mL (≈ 4.97 µM); MIC (H. influenzae B 1501): 1 µg/mL (≈ 1.24 µM); MIC (H. influenzae Christy): 2 µg/mL (≈ 2.48 µM); MIC (H. influenzae H13 LAH): 2 µg/mL (≈ 2.48 µM); MIC (H. influenzae H20 HDL): 1 µg/mL (≈ 1.24 µM); MIC (H. influenzae H28 HEL): 2 µg/mL (≈ 2.48 µM); MIC (H. influenzae H36 ODL): 2 µg/mL (≈ 2.48 µM); MIC (H. influenzae QK 12/87): 0.5 µg/mL (≈ 0.621 µM); MIC (H. influenzae QK 50): 2 µg/mL (≈ 2.48 µM); MIC (H. influenzae Rd KW20): 4 µg/mL (≈ 4.97 µM)
